Measured values from patent US10039282B2, “Six-membered C—N-bonded aryl sulphide and aryl sulphoxide derivatives as pesticides” (BAYER CROPSCIENCE AKTIENGESELLSCHAFT, priority 2013, dated 2018).
Read-outs that look alike come from different tables or passages of the source.

Assays:
[1] = test system: Boophilus microplus; test: Boophilus microplus injection test; type: in vivo; conditions: 20 μg/animal, assessed after 7 days
Protocol: 1. Boophilus microplus—Injection Test
Solvent: dimethyl sulphoxide
To produce an appropriate active compound formulation, 10 mg of active compound are mixed with 0.5 ml of solvent and the concentrate is diluted with solvent to the desired concentration.
1 μl of the active compound solution is injected into the abdomen of 5 engorged adult female cattle ticks (Boophilus microplus). The animals are transferred into dishes and kept in a climate-controlled room.
The efficacy is assessed after 7 days by laying of fertile eggs. Eggs which are not visibly fertile are stored in a climate-controlled cabinet until the larvae hatch after about 42 days. An efficacy of 100% means that none of the ticks has laid any fertile eggs; 0% means that all the eggs are fertile.

[2] = test system: Tetranychus urticae; test: Tetranychus urticae spray test, OP-resistant (bean leaf discs); type: in vivo; conditions: 500 g/ha, after 6 days
Protocol: 4. Tetranychus urticae—Spray Test, OP-Resistant
Solvent: 78.0 parts by weight of acetone
• 1.5 parts by weight of dimethylformamide Emulsifier: alkylaryl polyglycol ether
To produce further test concentrations, the preparation is diluted with emulsifier-containing water.
After 6 days, the efficacy in % is determined. 100% means that all the spider mites have been killed; 0% means that none of the spider mites have been killed.

[3] = test system: Meloidogyne incognita; test: Meloidogyne incognita test (sand, lettuce, gall formation after 14 days); type: in vivo; conditions: 20 ppm
Protocol: 2. Meloidogyne Incognita Test
Solvent: 125.0 parts by weight of acetone
To produce an appropriate active compound formulation, 1 part by weight of active compound is mixed with the stated amount of solvent and the concentrate is diluted with water to the desired concentration.
Vessels are filled with sand, active compound solution, an egg/larvae suspension of the southern root-knot nematode (Meloidogyne incognita) and lettuce seeds. The lettuce seeds germinate and the plants develop. The galls develop on the roots.
After 14 days, the nematicidal efficacy in % is determined by the formation of galls. 100% means that no galls were found; 0% means that the number of galls on the treated plants corresponds to the untreated control.

[4] = test system: Phaedon cochleariae; test: Phaedon cochleariae spray test; type: in vivo; conditions: 500 g/ha, after 7 days
Protocol: 3. Phaedon cochleariae—Spray Test
Solvent: 78.0 parts by weight of acetone • • 1.5 parts by weight of dimethylformamide Emulsifier: alkylaryl polyglycol ether
To produce an appropriate active compound formulation, 1 part by weight of active compound is dissolved using the specified parts by weight of solvent and made up with water containing an emulsifier concentration of 1000 ppm until the desired concentration is attained. To produce further test concentrations, the preparation is diluted with emulsifier-containing water.
Discs of Chinese cabbage leaves (Brassica pekinensis) are sprayed with an active compound formulation of the desired concentration and, after drying, populated with larvae of the mustard beetle (Phaedon cochleariae).
After 7 days, the efficacy in % is determined 100% means that all the beetle larvae have been killed; 0% means that no beetle larvae have been killed.

[5] = log P by reversed-phase HPLC analogously to OECD Guideline 117; type: physicochemical; conditions: reversed-phase C18 HPLC column
Protocol: The log P values were determined analogously to OECD Guideline 117 (EC Directive 92/69/EEC) by HPLC (high-performance liquid chromatography) using reversed-phase columns (C 18), by the following methods:
[a] The LC-MS determination in the acidic range is effected at pH 2.7 with 0.1% aqueous formic acid and acetonitrile (contains 0.1% formic acid) as eluents; linear gradient from 10% acetonitrile to 95% acetonitrile. log P^[…] is also referred to as log P(HCOOH). [b] LC-MS determination in the neutral range is effected at pH 7.8 with 0.001 molar aqueous ammonium hydrogencarbonate solution and acetonitrile as eluents; linear gradient from 10% acetonitrile to 95% acetonitrile. log P^[…] is also referred to as log P(neutral).
Calibration is effected with solutions of a homologous series of unbranched alkan-2-ones (having 3 to 16 carbon atoms) with known log P values (log P values determined on the basis of the retention times by linear interpolation between two successive alkanones).

| SMILES | efficacy (no fertile eggs laid) [1] [%] | efficacy (spider mites killed) [2] [%] | nematicidal efficacy (formation of galls) [3] [%] | efficacy (beetle larvae killed) [4] [%] | chromatographic logP ([5]; acidic range, pH 2.7, 0.1% aqueous formic acid/acetonitrile, read-out: logP (HCOOH)) | chromatographic logP ([5]; neutral range, pH 7.8, 0.001 molar aqueous ammonium hydrogencarbonate/acetonitrile, read-out: logP (neutral)) |
| --- | --- | --- | --- | --- | --- | --- |
| O=c1cc(C(F)(F)F)ncn1-c1cc([S+]([O-])CC(F)(F)F)c(Cl)cc1Cl (racemic) [Example 4] | 100 | 100 |  |  |  |  |
| Cc1ccc(-n2cncc(C)c2=O)cc1[S+]([O-])CC(F)(F)F (racemic) [Example 27] |  |  | 90 |  |  |  |
| Cc1cc(C)c([S+]([O-])CC(F)(F)F)cc1-n1cnc(C(F)(F)C(F)(F)F)cc1=O (racemic) [Example 33] |  | 100 | 100 |  |  |  |
| O=c1cc(C(F)(F)F)ncn1-c1ccc(Cl)c([S+]([O-])CC(F)(F)F)c1 (racemic) [Example 34] | 100 | 100 |  | 83 |  |  |
| O=c1cc(C(F)(F)F)ncn1-c1cc([S+]([O-])CC(F)(F)F)c(Br)cc1F (racemic) [Example 41] |  | 100 | 90 |  |  |  |
| Cc1cc(C)c([S+]([O-])CC(F)(F)F)cc1-n1cnc(C(F)(F)C(F)(F)F)cc1=O (racemic) [Example 45] |  | 100 | 100 |  |  |  |
| Cc1cc(=O)n(-c2cc([S+]([O-])CC(F)(F)F)c(C)cc2F)cn1 (racemic) [Example 46] |  | 100 |  | 83 |  |  |
| Cc1ccc(-n2cnc(C(F)(F)F)cc2=O)cc1[S+]([O-])CC(F)(F)F (racemic) [Example 50] | 100 | 100 |  |  |  |  |
| Cc1cc(F)c(-n2cnc(C(F)F)cc2=O)cc1[S+]([O-])CC(F)(F)F (racemic) [Example 55] |  | 100 |  | 100 |  |  |
| Cc1cc(F)c(-n2cnc(C(F)(F)C(F)(F)F)cc2=O)cc1[S+]([O-])CC(F)(F)F (single isomer, unassigned) [Example 18] |  | 100 |  | 83 |  |  |
| Cc1cc(F)c(-n2cnc(C(F)(F)C(F)(F)F)cc2=O)cc1[S+]([O-])CC(F)(F)F (single isomer, unassigned) [Example 26] | 100 | 100 | 90 |  |  |  |
| Cc1cc(C)c(-n2cnc(C(F)(F)F)cc2=O)cc1SCC(F)(F)F [Example 5, 3-[2,4-Dimethyl-5-(2,2,2-trifluoroethylsulphanyl)phenyl]-6-(trifluoromethyl)pyrimidin-4-one] | 100 | 100 |  |  | 3.56 | 3.5 |
| Cc1ccc(-n2cncc(F)c2=O)cc1SCC(F)(F)F [Example 12] |  | 90 | 90 |  |  |  |
| Cc1cc(F)c(-n2cnc(C(C)(F)F)cc2=O)cc1SCC(F)(F)F [Example 22] | 100 | 100 |  |  |  |  |
| Cc1cc(C)c(-n2c(C)nc(C(F)(F)F)cc2=O)cc1SCC(F)(F)F [Example 30] |  | 100 | 90 |  |  |  |
| Cc1cc(=O)n(-c2cc(SCC(F)(F)F)c(C)cc2F)cn1 [Example 44] |  | 100 |  | 100 |  |  |
| Cc1ccc(-n2cnc(C(F)(F)F)cc2=O)cc1SCC(F)(F)F [Example 47] | 100 | 100 |  |  |  |  |
| Cc1cc(Cl)c(-n2cnc(C(F)(F)F)cc2=O)cc1SCC(F)(F)F [Example 59] | 100 | 100 |  |  |  |  |
